Experimental findings from US6127377A, “Vinca alkaloid antimitotic halogenated derivatives” (Adir et Compagnie, priority 1997, dated 2000) are described below.

The experiment concerns tubulin. Briefly: inhibition of the polymerization of tubulin into microtubules, followed by changes in optical density (Weisenberg method). It counts as biochemical. To be noted: read-out: IC50, concentration of compound which brings about a 50% inhibition of the polymerization of tubulin into microtubules. From the text:
This property was confirmed by measuring the inhibition of the polymerization of tubulin into microtubules in the presence of the compounds of the invention, according to the method described by R. C. Weisenberg (Science 177, 1196-7, 1972). The results are expressed in terms of IC50, which corresponds to the concentration of compound which brings about a 50% inhibition of the polymerization. This phenomenon is readily monitored and quantified by means of the changes in optical density.
Turning to `CC[C@]12C=CCN3CC[C@@]4(c5cc([C@@]6(C(=O)OC)C[C@@H]7CC(C(C)Cl)CN(CCc8c6[nH]c6ccccc86)C7)c(OC)cc5N(C)[C@H]4[C@@](O)(C(=O)OC)[C@@H]1OC(C)=O)[C@@H]32` (stereo partly drawn) [Example 1, 20'-chloro-4'-deoxyvinblastine], the IC50 turned out to be 1.99 µM. With `CC[C@]12C=CCN3CC[C@@]4(c5cc([C@@]6(C(=O)OC)C[C@H]7CN(CCc8c6[nH]c6ccccc86)CC(F)(C(C)Cl)C7)c(OC)cc5N(C)[C@H]4[C@@](O)(C(=O)OC)[C@@H]1OC(C)=O)[C@@H]32` (stereo partly drawn) [Example 3, 20'-chloro-4'-deoxy-4'-fluorovinblastine], the IC50 was 1.54 µM. Next, `CCC1=C[C@@H]2CN(C1)Cc1c([nH]c3ccccc13)[C@@](C(=O)OC)(c1cc3c(cc1OC)N(C)[C@H]1[C@@](O)(C(=O)OC)[C@H](OC(C)=O)[C@]4(CC)C=CCN5CC[C@]31[C@@H]54)C2` [Vinorelbine, reference compound]: 1.7 µM.
